Test results: patent US20250230193A1, “CYCLIC COMPOUND HAVING SELECTIVE KRAS INHIBITORY EFFECT ON HRAS AND NRAS” (CHUGAI SEIYAKU KABUSHIKI KAISHA, priority 2022, published 2025)
*1 amine or outer side, *2 acyl side, *3 side chain or, on linkers, in order; H or OH if unused. Where a SMILES comes first, the peptide text is derived from it. Bridges are numbered along the chain shown (N, C = ends). [ ]: non-standard residue; d: D form. The star is where a group is joined. hPhe(3-Cl-4-CF3) = N[C@@H](CCc1ccc(C(F)(F)F)c(Cl)c1)C(=O)O; X30 = CCN([C@H](C(=O)[*:2])C1CCCC1)[*:1]; NMeGly(cPent) = CN[C@H](C(=O)O)C1CCCC1; NMeD = CN[C@@H](CC(=O)O)C(=O)O; NMeL = CN[C@@H](CC(C)C)C(=O)O; Morpholide = C1CN(*)CCO1; Ac5c = NC1(C(=O)O)CCCC1; Sar = CNCC(=O)O

Assays:
[1] = target: GDP-bound HRAS wild-type protein (Homo sapiens, UniProt P01112); test: Binding to HRAS by surface plasmon resonance (SPR), Single Cycle Kinetics
[2] = target: GDP-bound NRAS wild-type protein (Homo sapiens, UniProt P01111); test: Binding to NRAS by surface plasmon resonance (SPR), Single Cycle Kinetics
[3] = KD ratio, GDP-bound HRAS wild-type vs GDP-bound KRAS wild-type, SPR
[4] = KD ratio, GDP-bound NRAS wild-type vs GDP-bound KRAS wild-type, SPR

Sequence of GDP-bound HRAS wild-type protein (P01112 whole entry): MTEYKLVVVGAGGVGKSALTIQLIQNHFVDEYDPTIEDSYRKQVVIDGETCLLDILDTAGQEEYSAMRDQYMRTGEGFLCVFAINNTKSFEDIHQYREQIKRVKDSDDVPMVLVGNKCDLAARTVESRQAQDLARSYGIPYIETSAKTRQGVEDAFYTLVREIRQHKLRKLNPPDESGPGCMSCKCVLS
Sequence of GDP-bound NRAS wild-type protein (P01111 whole entry): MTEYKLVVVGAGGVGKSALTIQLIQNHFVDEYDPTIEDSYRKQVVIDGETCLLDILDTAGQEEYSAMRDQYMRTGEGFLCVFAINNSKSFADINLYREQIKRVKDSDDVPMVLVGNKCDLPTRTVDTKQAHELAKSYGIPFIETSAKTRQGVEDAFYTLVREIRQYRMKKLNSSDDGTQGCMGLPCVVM

## CCO[C@@H]1C[C@H]2C(=O)NC3(CCC3)C(=O)N(C)[C@@H](C3CCCC3)C(=O)N(C)[C@H](C(=O)N(C)C)CC(=O)N(C)[C@@H](CC3CCCC3)C(=O)N[C@@H]([C@@H](C)CC)C(=O)N(C)CC(=O)N(C)[C@H]3C/C=C\CCN(C3=O)[C@@H](Cc3ccc(C)cc3)C(=O)N(C)CC(=O)N[C@@H](CCc3cc(C)c(C(F)F)c(F)c3)C(=O)N2C1 [PP2676]
[1]; KD ratio HRAS/KRAS, class symbols
  HRAS/KRAS (ratio of KD value with respect to GDP-bound HRAS wild-type protein to KD value with respect to KRAS): A (a compound having 10 or more and less than 20 is denoted as A)
[2]; KD ratio NRAS/KRAS, class symbols
  NRAS/KRAS (ratio of KD value with respect to GDP-bound NRAS wild-type protein to KD value with respect to KRAS): A (a compound having 10 or more and less than 20 is denoted as A)

## CCCO[C@@H]1C[C@H]2C(=O)NC3(CC(C)(C)C3)C(=O)N(C)[C@@H](C(CC)CC)C(=O)N(C)[C@H](C(=O)N(C)C)CC(=O)N(C)[C@H]3CCCCc4ccc(cc4)C[C@@H](C(=O)N(C)CC(=O)N[C@@H](CCc4ccc(C(F)(F)F)c(OC)c4)C(=O)N2C1)N1CC/C=C\C[C@@H](C1=O)N(C)C(=O)CN(C)C(=O)[C@H]([C@@H](C)CC)NC3=O [PP3038]
[1]; KD ratio HRAS/KRAS, SPR, GDP-bound wild-type proteins
  HRAS/KRAS (ratio of KD value with respect to GDP-bound HRAS wild-type protein to KD value with respect to KRAS): A (a compound having 10 or more and less than 20 is denoted as A)
[2]; KD ratio NRAS/KRAS, SPR, GDP-bound wild-type proteins
  NRAS/KRAS (ratio of KD value with respect to GDP-bound NRAS wild-type protein to KD value with respect to KRAS): A (a compound having 10 or more and less than 20 is denoted as A)

## CC[C@H](C)[C@@H]1NC(=O)[C@H](CC)N(C)C(=O)C[C@@H](C(=O)N(C)C)N(CC)C(=O)[C@H](C2CCCC2)N(C)C(=O)C2(CCC2)NC(=O)[C@@H]2CCCN2C(=O)[C@H](CCc2cc(F)c(C(F)(F)F)c(F)c2)NC(=O)CN(C)C(=O)[C@H](Cc2ccc(C(F)(F)F)cc2)N2CC/C=C\C[C@@H](C2=O)N(C)C(=O)CN(C)C1=O [PP1106]
[1]; [3]
  HRAS/KRAS (ratio of KD value with respect to HRAS to KD value with respect to KRAS): A (a compound having 10 or more and less than 20 is denoted as A)
[2]; [4]
  NRAS/KRAS (ratio of KD value with respect to NRAS to KD value with respect to KRAS): A (a compound having 10 or more and less than 20 is denoted as A)

## CC[C@H](C)[C@@H]1NC(=O)[C@H](CC(C)C)N(C)C(=O)C[C@@H](C(=O)N2CCOCC2)N(C)C(=O)[C@H](C2CCCC2)N(C)C(=O)C2(CCC2)NC(=O)[C@@H]2[C@@H](OCC3CCCC3)CCN2C(=O)[C@H](CCc2cc(F)c(C(F)(F)F)c(F)c2)NC(=O)CN(C)C(=O)[C@H](Cc2ccc(C(F)(F)F)cc2)N2CCCCC[C@@H](C2=O)N(C)C(=O)CN(C)C1=O [PP1011]
[1]; [3]
  HRAS/KRAS (ratio of KD value with respect to HRAS to KD value with respect to KRAS): B (a compound having 3 or more and less than 10 is denoted as B)
[2]; [4]
  NRAS/KRAS (ratio of KD value with respect to NRAS to KD value with respect to KRAS): A (a compound having 10 or more and less than 20 is denoted as A)

## CCC[C@H]1C(=O)N[C@@H]([C@@H](C)CC)C(=O)N(C)CC(=O)N(C)[C@H]2C/C=C\CCN(C2=O)[C@@H](Cc2ccc(C)cc2)C(=O)N(C)CC(=O)N[C@@H](CCc2ccc(C(F)(F)F)c(Cl)c2)C(=O)N2C[C@H](OCC)C[C@H]2C(=O)NC2(CC(C)(C)C2)C(=O)N(C)[C@@H](C2CCCC2)C(=O)N(C)[C@H](C(=O)N(C)C)CC(=O)N1C [PP1896]
[1]; [3]
  HRAS/KRAS (ratio of KD value for HRAS to KD value for KRAS): B (a compound having 3 or more and less than 10 is denoted as B)
[2]; [4]
  NRAS/KRAS (ratio of KD value for NRAS to KD value for KRAS): A (a compound having 10 or more and less than 20 is denoted as A)

## CCO[C@@H]1C[C@H]2C(=O)NC3(CCC3)C(=O)N(C)[C@@H](C3CCCC3)C(=O)N(C)[C@H](C(=O)N3CCOCC3)CC(=O)N(C)[C@@H](COC)C(=O)N[C@@H]([C@@H](C)CC)C(=O)N(C)CC(=O)N(C)[C@H]3CCCCCN(C3=O)[C@@H](Cc3ccc(C(F)(F)F)cc3)C(=O)N(C)CC(=O)N[C@@H](CCc3ccc(C(F)(F)F)c(Cl)c3)C(=O)N2C1 [PP0849]
[1]; [3]
  HRAS/KRAS (ratio of KD value with respect to HRAS to KD value with respect to KRAS): B (a compound having 3 or more and less than 10 is denoted as B)
[2]; [4]
  NRAS/KRAS (ratio of KD value with respect to NRAS to KD value with respect to KRAS): B (a compound having 3 or more and less than 10 is denoted as B)

## CC[C@H](C)[C@@H]1NC(=O)[C@H](CC(C)C)N(C)C(=O)C[C@@H](C(=O)N2CCOCC2)N(C)C(=O)[C@H](C2CCCC2)N(C)C(=O)C2(CCCC2)NC(=O)[C@@H]2CCCN2C(=O)[C@H](CCc2ccc(C(F)(F)F)c(Cl)c2)NC(=O)CN(C)C(=O)[C@H](C2CCCC2)N(CC)C(=O)CN(C)C(=O)CN(C)C1=O [PP0024] ([NMeL]I[Sar][Sar][X30][Sar][hPhe(3-Cl-4-CF3)]P[Ac5c][NMeGly(cPent)][NMeD]-Morpholide; lactam N-11)
[1]; KD ratio HRAS/KRAS, SPR
  HRAS/KRAS (ratio of KD for GDP-bound HRAS wild-type to KD for KRAS): C (A compound having a KD ratio of 0.1 or more and less than 3 is denoted as C)
[2]; KD ratio NRAS/KRAS, SPR
  NRAS/KRAS (ratio of KD for GDP-bound NRAS wild-type to KD for KRAS): B (a compound having 3 or more and less than 10 is denoted as B)
